{"source": "ChEMBL document CHEMBL5634115", "about": "“Exploring novel anticancer pyrazole benzenesulfonamides featuring tail approach strategy as carbonic anhydrase inhibitors” (Eur J Med Chem, 2023)", "key": {"ACHN": {"system": "ACHN", "test": "cells", "type": "functional", "conditions": "Homo sapiens, time 48 hrs", "description": "Cytostatic activity against human ACHN cells assessed as total growth inhibition measured after 48 hrs by sulforhodamine B assay"}, "MDA-MB-468": {"system": "MDA-MB-468", "test": "cells", "type": "functional", "conditions": "Homo sapiens, time 48 hrs", "description": "Growth inhibition of human MDA-MB-468 cells measured after 48 hrs by sulforhodamine B assay"}, "MOLT-4": {"system": "MOLT-4", "test": "cells", "type": "functional", "conditions": "Homo sapiens, time 48 hrs", "description": "Growth inhibition of human MOLT-4 cells measured after 48 hrs by sulforhodamine B assay"}, "TK-10 [1]": {"system": "TK-10", "test": "cells", "type": "functional", "conditions": "Homo sapiens, time 48 hrs", "description": "Growth inhibition of human TK-10 cells measured after 48 hrs by sulforhodamine B assay"}, "Malme-3M [2]": {"system": "Malme-3M", "test": "cells", "type": "functional", "conditions": "Homo sapiens, time 48 hrs", "description": "Cytostatic activity against human Malme-3M cells assessed as total growth inhibition measured after 48 hrs by sulforhodamine B assay"}, "IGROV-1 [3]": {"system": "IGROV-1", "test": "cells", "type": "functional", "conditions": "Homo sapiens, time 48 hrs", "description": "Growth inhibition of human IGROV-1 cells measured after 48 hrs by sulforhodamine B assay"}, "NCI-H460 [4]": {"system": "NCI-H460", "test": "cells", "conditions": "Homo sapiens, NCI-H460, 48 h, read-out: LC50", "description": "Cytotoxicity activity against human NCI-H460 cells assessed as reduction in cell growth measured after 48 hrs by sulforhodamine B assay"}, "NCI-H460 [5]": {"system": "NCI-H460", "test": "cells", "type": "functional", "conditions": "Homo sapiens, time 48 hrs", "description": "Cytostatic activity against human NCI-H460 cells assessed as total growth inhibition measured after 48 hrs by sulforhodamine B assay"}, "LOX IMVI": {"system": "LOX IMVI", "test": "cells", "type": "functional", "conditions": "Homo sapiens, time 48 hrs", "description": "Cytostatic activity against human LOX IMVI cells assessed as total growth inhibition measured after 48 hrs by sulforhodamine B assay"}, "COLO 205": {"system": "COLO 205", "test": "cells", "type": "functional", "conditions": "Homo sapiens, time 48 hrs", "description": "Growth inhibition of human COLO 205 cells measured after 48 hrs by sulforhodamine B assay"}, "SNB-75": {"system": "SNB-75", "test": "cells", "type": "functional", "conditions": "Homo sapiens, time 48 hrs", "description": "Cytostatic activity against human SNB-75 cells assessed as total growth inhibition measured after 48 hrs by sulforhodamine B assay"}, "Malme-3M [6]": {"system": "Malme-3M", "test": "cells", "type": "functional", "conditions": "Homo sapiens, time 48 hrs", "remark": "listed apart in the source"}, "CAKI-1 [7]": {"system": "CAKI-1", "test": "cells", "conditions": "Homo sapiens, CAKI-1, 48 h, read-out: LC50", "description": "Cytotoxicity activity against human CAKI-1 cells assessed as reduction in cell growth measured after 48 hrs by sulforhodamine B assay"}, "MDA-MB-435": {"system": "MDA-MB-435", "test": "cells", "conditions": "Homo sapiens, MDA-MB-435, 48 h, read-out: LC50", "description": "Cytotoxicity activity against human MDA-MB-435 cells assessed as reduction in cell growth measured after 48 hrs by sulforhodamine B assay"}, "Malme-3M [8]": {"system": "Malme-3M", "test": "cells", "conditions": "Homo sapiens, 48 h, read-out: LC50", "description": "Cytotoxicity activity against human Malme-3M cells assessed as reduction in cell growth measured after 48 hrs by sulforhodamine B assay"}, "HOP-62 [9]": {"system": "HOP-62", "test": "cells", "conditions": "Homo sapiens, HOP-62, 48 h, read-out: LC50", "description": "Cytotoxicity activity against human HOP-62 cells assessed as reduction in cell growth measured after 48 hrs by sulforhodamine B assay"}, "CCRF-CEM": {"system": "CCRF-CEM", "test": "cells", "type": "functional", "conditions": "Homo sapiens, time 48 hrs", "description": "Growth inhibition of human CCRF-CEM cells measured after 48 hrs by sulforhodamine B assay"}, "NCI-H460 [10]": {"system": "NCI-H460", "test": "cells", "type": "functional", "conditions": "Homo sapiens, time 48 hrs", "remark": "listed apart in the source", "description": "Growth inhibition of human NCI-H460 cells measured after 48 hrs by sulforhodamine B assay"}, "Carbonic anhydrase 12": {"target": "Carbonic anhydrase 12 (Homo sapiens, UniProt O43570)", "sequence (O43570 whole entry)": "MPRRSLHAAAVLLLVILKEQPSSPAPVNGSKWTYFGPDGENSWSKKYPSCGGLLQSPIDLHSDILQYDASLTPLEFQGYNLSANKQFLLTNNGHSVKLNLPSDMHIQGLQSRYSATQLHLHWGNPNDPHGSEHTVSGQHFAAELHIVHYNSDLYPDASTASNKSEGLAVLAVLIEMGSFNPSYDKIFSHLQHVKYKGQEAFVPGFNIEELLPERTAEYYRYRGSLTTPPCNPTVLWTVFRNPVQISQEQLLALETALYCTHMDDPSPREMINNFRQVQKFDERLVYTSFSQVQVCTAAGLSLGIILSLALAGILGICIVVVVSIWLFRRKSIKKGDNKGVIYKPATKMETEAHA", "description": "Inhibition of human carbonic anhydrase 12 preincubated for 15 mins followed by substrate addition and measured after 30 mins by spectrophotometric method"}, "MDA-MB-231": {"system": "MDA-MB-231", "test": "cells", "type": "functional", "conditions": "Homo sapiens, time 48 hrs", "description": "Cytostatic activity against human MDA-MB-231 cells assessed as total growth inhibition measured after 48 hrs by sulforhodamine B assay"}, "RXF 393": {"system": "RXF 393", "test": "cells", "type": "functional", "conditions": "Homo sapiens, time 48 hrs", "description": "Growth inhibition of human RXF 393 cells measured after 48 hrs by sulforhodamine B assay"}, "K562": {"system": "K562", "test": "cells", "conditions": "Homo sapiens, K562, 48 h, read-out: LC50", "description": "Cytotoxicity activity against human K562 cells assessed as reduction in cell growth measured after 48 hrs by sulforhodamine B assay"}, "786-0": {"system": "786-0", "test": "cells", "type": "functional", "conditions": "Homo sapiens, time 48 hrs", "description": "Cytostatic activity against human 786-0 cells assessed as total growth inhibition measured after 48 hrs by sulforhodamine B assay"}, "U-251": {"system": "U-251", "test": "cells", "conditions": "Homo sapiens, U-251, 48 h, read-out: LC50", "description": "Cytotoxicity activity against human U-251 cells assessed as reduction in cell growth measured after 48 hrs by sulforhodamine B assay"}, "SF-295": {"system": "SF-295", "test": "cells", "conditions": "Homo sapiens, SF-295, 48 h, read-out: LC50", "description": "Cytotoxicity activity against human SF-295 cells assessed as reduction in cell growth measured after 48 hrs by sulforhodamine B assay"}, "EKVX [11]": {"system": "EKVX", "test": "cells", "conditions": "Homo sapiens, 48 h, read-out: LC50", "description": "Cytotoxicity activity against human EKVX cells assessed as reduction in cell growth measured after 48 hrs by sulforhodamine B assay"}, "SF-539": {"system": "SF-539", "test": "cells", "type": "functional", "conditions": "Homo sapiens, time 48 hrs", "description": "Cytostatic activity against human SF-539 cells assessed as total growth inhibition measured after 48 hrs by sulforhodamine B assay"}, "Hs-578T [12]": {"system": "Hs-578T", "test": "cells", "type": "functional", "conditions": "Homo sapiens, time 48 hrs", "description": "Cytostatic activity against human Hs-578T cells assessed as total growth inhibition measured after 48 hrs by sulforhodamine B assay"}, "MCF7": {"system": "MCF7", "test": "cells", "conditions": "Homo sapiens, MCF7, 48 h, read-out: LC50", "description": "Cytotoxicity activity against human MCF7 cells assessed as reduction in cell growth measured after 48 hrs by sulforhodamine B assay"}, "TK-10 [13]": {"system": "TK-10", "test": "cells", "conditions": "Homo sapiens, TK-10, 48 h, read-out: LC50", "description": "Cytotoxicity activity against human TK-10 cells assessed as reduction in cell growth measured after 48 hrs by sulforhodamine B assay"}, "PC-3": {"system": "PC-3", "test": "cells", "conditions": "Homo sapiens, PC-3, 48 h, read-out: LC50", "description": "Cytotoxicity activity against human PC-3 cells assessed as reduction in cell growth measured after 48 hrs by sulforhodamine B assay"}, "OVCAR-5": {"system": "OVCAR-5", "test": "cells", "conditions": "Homo sapiens, OVCAR-5, 48 h, read-out: LC50", "description": "Cytotoxicity activity against human OVCAR-5 cells assessed as reduction in cell growth measured after 48 hrs by sulforhodamine B assay"}, "NCI-H322M": {"system": "NCI-H322M", "test": "cells", "conditions": "Homo sapiens, 48 h, read-out: LC50", "description": "Cytotoxicity activity against human NCI-H322M cells assessed as reduction in cell growth measured after 48 hrs by sulforhodamine B assay"}, "SR [14]": {"system": "SR", "test": "cells", "conditions": "Homo sapiens, 48 h, read-out: LC50", "description": "Cytotoxicity activity against human SR cells assessed as reduction in cell growth measured after 48 hrs by sulforhodamine B assay"}, "Hs-578T [15]": {"system": "Hs-578T", "test": "cells", "conditions": "Homo sapiens, 48 h, read-out: LC50", "description": "Cytotoxicity activity against human Hs-578T cells assessed as reduction in cell growth measured after 48 hrs by sulforhodamine B assay"}, "SN12C": {"system": "SN12C", "test": "cells", "type": "functional", "conditions": "Homo sapiens, time 48 hrs", "description": "Cytostatic activity against human SN12C cells assessed as total growth inhibition measured after 48 hrs by sulforhodamine B assay"}, "TK-10 [16]": {"system": "TK-10", "test": "cells", "type": "functional", "conditions": "Homo sapiens, time 48 hrs", "remark": "listed apart in the source", "description": "Cytostatic activity against human TK-10 cells assessed as total growth inhibition measured after 48 hrs by sulforhodamine B assay"}, "SNB-19 [17]": {"system": "SNB-19", "test": "cells", "type": "functional", "conditions": "Homo sapiens, time 48 hrs", "description": "Growth inhibition of human SNB-19 cells measured after 48 hrs by sulforhodamine B assay"}, "HOP-62 [18]": {"system": "HOP-62", "test": "cells", "type": "functional", "conditions": "Homo sapiens, time 48 hrs", "description": "Growth inhibition of human HOP-62 cells measured after 48 hrs by sulforhodamine B assay"}, "UO-31": {"system": "UO-31", "test": "cells", "type": "functional", "conditions": "Homo sapiens, time 48 hrs", "description": "Cytostatic activity against human UO-31 cells assessed as total growth inhibition measured after 48 hrs by sulforhodamine B assay"}, "IGROV-1 [19]": {"system": "IGROV-1", "test": "cells", "type": "functional", "conditions": "Homo sapiens, time 48 hrs", "remark": "listed apart in the source", "description": "Cytostatic activity against human IGROV-1 cells assessed as total growth inhibition measured after 48 hrs by sulforhodamine B assay"}, "UACC-257": {"system": "UACC-257", "test": "cells", "conditions": "Homo sapiens, UACC-257, 48 h, read-out: LC50", "description": "Cytotoxicity activity against human UACC-257 cells assessed as reduction in cell growth measured after 48 hrs by sulforhodamine B assay"}, "OVCAR-3": {"system": "OVCAR-3", "test": "cells", "type": "functional", "conditions": "Homo sapiens, time 48 hrs", "description": "Cytostatic activity against human OVCAR-3 cells assessed as total growth inhibition measured after 48 hrs by sulforhodamine B assay"}, "EKVX [20]": {"system": "EKVX", "test": "cells", "type": "functional", "conditions": "Homo sapiens, time 48 hrs", "description": "Growth inhibition of human EKVX cells measured after 48 hrs by sulforhodamine B assay"}, "A498": {"system": "A498", "test": "cells", "type": "functional", "conditions": "Homo sapiens, time 48 hrs", "description": "Cytostatic activity against human A498 cells assessed as total growth inhibition measured after 48 hrs by sulforhodamine B assay"}, "CAKI-1 [21]": {"system": "CAKI-1", "test": "cells", "type": "functional", "conditions": "Homo sapiens, time 48 hrs", "description": "Cytostatic activity against human CAKI-1 cells assessed as total growth inhibition measured after 48 hrs by sulforhodamine B assay"}, "HCC 2998": {"system": "HCC 2998", "test": "cells", "conditions": "Homo sapiens, HCC 2998, 48 h, read-out: LC50", "description": "Cytotoxicity activity against human HCC 2998 cells assessed as reduction in cell growth measured after 48 hrs by sulforhodamine B assay"}, "OVCAR-4": {"system": "OVCAR-4", "test": "cells", "type": "functional", "conditions": "Homo sapiens, time 48 hrs", "description": "Cytostatic activity against human OVCAR-4 cells assessed as total growth inhibition measured after 48 hrs by sulforhodamine B assay"}, "SR [22]": {"system": "SR", "test": "cells", "type": "functional", "conditions": "Homo sapiens, time 48 hrs", "description": "Cytostatic activity against human SR cells assessed as total growth inhibition measured after 48 hrs by sulforhodamine B assay"}, "SNB-19 [23]": {"system": "SNB-19", "test": "cells", "conditions": "Homo sapiens, SNB-19, 48 h, read-out: LC50", "description": "Cytotoxicity activity against human SNB-19 cells assessed as reduction in cell growth measured after 48 hrs by sulforhodamine B assay"}, "HL-60(TB)": {"system": "HL-60(TB)", "test": "cells", "conditions": "Homo sapiens, HL-60, 48 h, read-out: LC50", "description": "Cytotoxicity activity against human HL-60(TB) cells assessed as reduction in cell growth measured after 48 hrs by sulforhodamine B assay"}}, "data": [{"smiles": "CCOC(=O)c1ccc(N/N=C/c2cn(-c3ccc(S(N)(=O)=O)cc3)nc2-c2ccc(C)cc2)cc1", "values": [{"measurement": "TGI", "setting": "ACHN", "result": 24.3, "unit": "µM"}, {"measurement": "GI50", "setting": "MDA-MB-468", "result": 3.51, "unit": "µM"}, {"measurement": "GI50", "setting": "MOLT-4", "result": 2.87, "unit": "µM"}, {"measurement": "GI50", "setting": "TK-10 [1]", "result": 24.5, "unit": "µM"}, {"measurement": "TGI", "setting": "Malme-3M [2]", "result": 23.4, "unit": "µM"}, {"measurement": "GI50", "setting": "IGROV-1 [3]", "result": 5.13, "unit": "µM"}, {"measurement": "CC50", "setting": "NCI-H460 [4]", "result": "> 100", "unit": "µM"}, {"measurement": "TGI", "setting": "NCI-H460 [5]", "result": 2.43, "unit": "µM"}, {"measurement": "TGI", "setting": "LOX IMVI", "result": 3.15, "unit": "µM"}, {"measurement": "GI50", "setting": "COLO 205", "result": 11.2, "unit": "µM"}, {"measurement": "TGI", "setting": "SNB-75", "result": 46.4, "unit": "µM"}, {"measurement": "GI50", "setting": "Malme-3M [6]", "result": 7.32, "unit": "µM"}, {"measurement": "CC50", "setting": "CAKI-1 [7]", "result": "> 100", "unit": "µM"}, {"measurement": "CC50", "setting": "MDA-MB-435", "result": 70.2, "unit": "µM"}, {"measurement": "CC50", "setting": "Malme-3M [8]", "result": 62.5, "unit": "µM"}, {"measurement": "CC50", "setting": "HOP-62 [9]", "result": "> 100", "unit": "µM"}, {"measurement": "GI50", "setting": "CCRF-CEM", "result": 3.82, "unit": "µM"}, {"measurement": "GI50", "setting": "NCI-H460 [10]", "result": 2.43, "unit": "µM"}, {"measurement": "IC50", "setting": "Carbonic anhydrase 12", "result": 0.155, "unit": "µM"}, {"measurement": "TGI", "setting": "MDA-MB-231", "result": 9.13, "unit": "µM"}, {"measurement": "GI50", "setting": "RXF 393", "result": 1.97, "unit": "µM"}, {"measurement": "CC50", "setting": "K562", "result": "> 100", "unit": "µM"}, {"measurement": "TGI", "setting": "786-0", "result": 5.74, "unit": "µM"}, {"measurement": "CC50", "setting": "U-251", "result": "> 100", "unit": "µM"}, {"measurement": "CC50", "setting": "SF-295", "result": 74.3, "unit": "µM"}, {"measurement": "CC50", "setting": "EKVX [11]", "result": "> 100", "unit": "µM"}, {"measurement": "TGI", "setting": "SF-539", "result": 8.03, "unit": "µM"}, {"measurement": "TGI", "setting": "Hs-578T [12]", "result": 27.2, "unit": "µM"}, {"measurement": "CC50", "setting": "MCF7", "result": "> 100", "unit": "µM"}, {"measurement": "CC50", "setting": "TK-10 [13]", "result": "> 100", "unit": "µM"}, {"measurement": "CC50", "setting": "PC-3", "result": "> 100", "unit": "µM"}, {"measurement": "CC50", "setting": "OVCAR-5", "result": 63.6, "unit": "µM"}, {"measurement": "CC50", "setting": "NCI-H322M", "result": "> 100", "unit": "µM"}, {"measurement": "CC50", "setting": "SR [14]", "result": "> 100", "unit": "µM"}, {"measurement": "CC50", "setting": "Hs-578T [15]", "result": "> 100", "unit": "µM"}, {"measurement": "TGI", "setting": "SN12C", "result": 58.6, "unit": "µM"}, {"measurement": "TGI", "setting": "TK-10 [16]", "result": "> 100", "unit": "µM"}, {"measurement": "GI50", "setting": "SNB-19 [17]", "result": 4.1, "unit": "µM"}, {"measurement": "GI50", "setting": "HOP-62 [18]", "result": 6.55, "unit": "µM"}, {"measurement": "TGI", "setting": "UO-31", "result": 14.8, "unit": "µM"}, {"measurement": "TGI", "setting": "IGROV-1 [19]", "result": 25.9, "unit": "µM"}, {"measurement": "CC50", "setting": "UACC-257", "result": "> 100", "unit": "µM"}, {"measurement": "TGI", "setting": "OVCAR-3", "result": 7.27, "unit": "µM"}, {"measurement": "GI50", "setting": "EKVX [20]", "result": 3.17, "unit": "µM"}, {"measurement": "TGI", "setting": "A498", "result": 31.8, "unit": "µM"}, {"measurement": "TGI", "setting": "CAKI-1 [21]", "result": 11.7, "unit": "µM"}, {"measurement": "CC50", "setting": "HCC 2998", "result": 8.71, "unit": "µM"}, {"measurement": "TGI", "setting": "OVCAR-4", "result": 71.5, "unit": "µM"}, {"measurement": "TGI", "setting": "SR [22]", "result": 2.65, "unit": "µM"}, {"measurement": "CC50", "setting": "SNB-19 [23]", "result": "> 100", "unit": "µM"}, {"measurement": "CC50", "setting": "HL-60(TB)", "result": "> 100", "unit": "µM"}]}]}
